Assays:
[1] = test system: motor neurons plated on astrocyte monolayers; experiment: Motor neuron survival in astrocyte-motor neuron co-cultures; assay type: cell-based, rat; details: for Motor neuron survival, percentage of control: co-cultures treated with NGF, mean±SD
Experimental: Cell cultures and treatments. […] Astrocytes were plated at a density of 2×10^4 cells/cm^2 and maintained in DMEM supplemented with 10% fetal bovine serum, HEPES (3.6 g/l), penicillin ([…]) and streptomycin (100 μg/ml).
For co-culture experiments, motor neurons were plated on astrocyte monolayers at a density of 300 cells/cm^2 and maintained in L15 medium supplemented with 0.63 mg/ml bicarbonate, 5 μg/ml insulin, 0.1 mg/ml conalbumin, 0.1 mM putrescine, 30 nM sodium selenite, 20 nM progesterone, 20 mM glucose, 100 IU/ml penicillin, 100 μg/ml streptomycin, and 2% horse serum. Drugs and blocking antibodies were added 3 h after plating at the indicated concentrations.
Treatments with peroxynitrite and LPS. Peroxynitrite was generously provided by Dr. Rafael Radi (UDELAR, Uruguay) and its concentration determined spectrophotometrically at 302 nm (e=1700 M^−1 cm^−1). Confluent astrocyte monolayers were washed with Dulbecco's phosphate-buffered saline (PBS), supplemented with 0.8 mM MgCl2, 1 mM CaCl2, and 5 mM glucose, and then incubated in 1 ml of 50 mM Na2HPO4, 90 mM NaCl, 5 mM KCl, 0.8 mM MgCl2, 1 mM CaCl2, and 5 mM glucose, pH 7.4. Finally, three additions of 5 μL bolus of peroxynitrite were made to reach the final concentration of 0.5 mM. Five minutes after peroxynitrite exposure, the buffer was removed and replaced with L15 medium, supplemented as described above. In co-culture experiments, motor neurons were plated 1 h after peroxynitrite exposure. […] LPS (from E. coli 026-B6 Cat. No L2654 Sigma) was directly applied to astrocyte monolayers 24 h before and immediately after plating of motor neurons in coculture experiments.

[2] = test system: pure motor neuron cultures; experiment: Motor neuron survival in pure motor neuron cultures maintained with GDNF; assay type: cell-based, rat; details: for Motor neuron survival with peroxynitrite-treated neurotrophin: without exogenous nitric oxide, GDNF 1 ng/ml, 48 h
Experimental: Purified motor neuron cultures were plated at a density of 300 cells/cm^2 in dishes precoated with polyornithinelaminin and maintained in Neurobasal medium supplemented with 2% horse serum, […] L-glutamate, 25 μM β-mercaptoethanol, 0.5 mM L-glutamine, and 2% B-27 supplement (Gibco-Invitrogen). Blocking antibodies were added 3 h after plating at the indicated dilutions. The generation of a low steady state concentration (<50 nM) of nitric oxide was generated by the spontaneous deassociation of 10 μM DETA-NONate (Cayman).
To assess the pro-apoptotic activity of conditioned media, astrocyte monolayers were incubated for 24 h in Neurobasal medium supplemented as described above, and that medium immediately used to replace the medium of pure motor neuron cultures established 24 h before. Blocking antibodies and DETA-NONOate were added to the conditioned media and motor neuron survival determined after 48 h.
To assess the pro-apoptotic activity in spinal cord extracts, lumbar cords were dissected from 90 day-old G93A mice or non-transgenic littermates over ice under sterile conditions. To 100 mg of tissue were added 0.4 ml of PBS containing 3 mM EGTA, 1 mM EDTA, 0.5 μg/ml aprotinin, 0.5 μg/ml pepstatin and 0.1 mM PMSF at 0° C., and the tissue was then homogenized under sterile conditions. Homogenates were centrifuged at 40,000 g for 1 hr and the clear supernatants collected and kept at −80° C. until used. Aliquots were added to motor neuron cultures to reach a final protein concentration of 0.5 μg/ml. In all cases, blocking antibodies and drugs were added 3 h after motor neuron plating. The generation of a steady state concentration (<50 nM) of nitric oxide was obtained by the spontaneous disassociation of 10 μM NOC-18 (Dojindo, Gaithersburg).
Cell counts. Motor neuron survival was assessed by directly counting all cells displaying intact neurites longer than 4 cells in diameter following immunostaining against p 75NTR Counts were performed over an area of 2.76 cm^2 in the center of 35 mm dishes or in an area measuring 0.90 cm^2 along a diagonal in 24-well plates (Cassina et al., 2002). The mean density of motor neurons in control cocultures was 90±4 cells/cm^2.
Protocol for preparation of muscle extracts and western blotting. Quadriceps muscles were dissected from symptomatic G93A SOD1 or non transgenic littermate mice over ice under sterile conditions. To 1 g of tissues was added 4 ml of PBS containing 3 mM EGTA, 1 mM EDTA, 0.5 mg/ml aprotinin, 0.5 mg/ml pepstatin and 0.1 mM PMSF at 0° C., and the tissue was homogenized under sterile conditions. Homogenates were centrifuged at 40,000 g for 1 hr and the clear supernatants collected and kept at −80° C. until used. Quadriceps were homogenized in lysis buffer containing 2 mM EDTA, 1% SDS, 1 mM PMSF, 10 μg/ml aprotinin, 1 μg/ml leupeptin and 0.5 mM sodium vanadate. Protein quantification was performed using the BCA Protein Assay Reagent kit (Pierce Biotechnology). The samples were prepared in Laemmli buffer supplemented with […] and proteins were transferred to nitrocellulose membrane (Amersham). Membranes were blocked for 2 h in blocking buffer (5% BSA, 0.1% Tween 20 in Tris-buffered saline (TBS), pH 7.4) followed by an over-night incubation with the primary antibody diluted in blocking buffer. […]

[3] = test system: cultured spinal cord astrocytes; experiment: ELISA determination of NGF secreted by cultured spinal cord astrocytes; assay type: cell-based, rat; details: peroxynitrite 0.5 mM
Experimental: Cell cultures and treatments. Primary astrocyte cultures were prepared from the spinal cords of rats aged 1-2 days according to the procedures of Saneto and De Vellis (1987), with minor modifications (Cassina et al., 2002). Astrocytes were plated at a density of 2×10^4 cells/cm^2 and maintained in DMEM supplemented with 10% fetal bovine serum, HEPES (3.6 g/l), penicillin ([…]) and streptomycin (100 μg/ml). The astrocyte monolayers were >98% pure as determined by GFAP immunoreactivity and were devoid of OX42-positive microglial cells.
Treatments with peroxynitrite and LPS. Peroxynitrite was generously provided by Dr. Rafael Radi (UDELAR, Uruguay) and its concentration determined spectrophotometrically at 302 nm (e=1700 M^−1 cm^−1). Confluent astrocyte monolayers were washed with Dulbecco's phosphate-buffered saline (PBS), supplemented with 0.8 mM MgCl2, 1 mM CaCl2, and 5 mM glucose, and then incubated in 1 ml of 50 mM Na2HPO4, 90 mM NaCl, 5 mM KCl, 0.8 mM MgCl2, 1 mM CaCl2, and 5 mM glucose, pH 7.4. Finally, three additions of 5 μL bolus of peroxynitrite were made to reach the final concentration of 0.5 mM. […]
Determination of NGF/proNGF. The NGF protein concentration in the culture medium from astrocytes or spinal cord extracts was quantified using the NGF Emax ImmunoAssay System kit (Promega) following the manufacturer's instructions.

[4] = test system: G93A SOD-1 transgenic mice; experiment: ALS-like disease progression and survival after systemic immunization against NGF; assay type: in vivo
Description: Systemic immunization against NGF on ALS-like disease progression and survival in transgenic mouse overexpressing mutant G93A-SOD1 gene. Animals. The transgenic mouse line overexpressing mutant G93A-SOD1 gene [TgN(SOD1-G93A)1Gur, a high expression mouse line] and the mating pairs were purchased from Jackson laboratory (Bar Harbor, Me., USA). Mice were housed and bred as described previously (Gurney et al. 1994) in accordance with the Institutional Animal Care guidelines.
Immunization protocol. Adult, female, 40-50 day-old mice, initially weighing 18-24 g, were used for these experiments. Mice were group-housed 5 mice per cage and allowed free access to food and water. For testing, a total of 10 mice per group were autoimmunized against NGF. Each received […] of 25 μg of 2.5S mouse NGF (Harlam, USA) in 0.1 ml of a suspension of aluminum phosphate used as adjuvant. A second injection of 2.5S NGF (50 μg) in the same adjuvant was given 3 weeks later. Non-transgenic and vehicle-injected mice served as control animals for survival tests.
Analysis of ALS-like disease progression and survival in transgenic mouse. Mice were examined daily for paralysis, disease progression and survival analysis. The initial symptoms of hind leg paralysis or failure to remain suspended in an inverted grid were considered as the disease progression threshold. Mice were killed at terminal stage, i.e. severely paralysis and inability to seek food and water.

COC(=O)CC[C@H](NC(=O)[C@H](CC(=O)OC)NC(=O)OCc1ccccc1)C(=O)N[C@H](C(=O)N[C@@H](CC(=O)OC)C(=O)CF)C(C)C [DEVD-fmk]
Prevention of NGF-induced motor neuron death by caspase inhibitors ([1]; co-culture, 10 μM added every 24 hours): prevented

CC(=N)NCCCC[C@H](N)C(=O)O [LNIL, L-N6-(1-Iminoethyl)-lysine]
Prevention of motor neuron apoptosis induced by NGF ([1]; co-culture, 10 μM, 72 h): significantly prevented

CCCNC(=N)NCCC[C@H](N)C(=O)O [NPLA, N5[Imino(propylamino)methyl]-Lornithine; Nu-Propyl-L-arginine]
Prevention of motor neuron apoptosis induced by NGF ([1]; co-culture, 10 μM, 72 h): significantly prevented | Motor neuron survival, percentage of control ([1]; inhibitor 10 μM, 72 h): 110.4±9.2%

[N]=O [Nitric oxide, reference compound]
Motor neuron survival, nitric oxide alone ([2]; <50 nM from 10 μM NOC-18, without NGF): did not affect motor neuron survival

FC(F)(F)c1ccccc1-n1ccnc1 [TRIM, 1-(2-Trifluoromethylphenyl)imidazole]
Prevention of motor neuron apoptosis induced by NGF ([1]; co-culture, 10 μM, 72 h): significantly prevented

N=C(N)NN [aminoguanidine]
Prevention of motor neuron apoptosis induced by NGF ([1]; co-culture, 50 μM, 72 h): significantly prevented | Motor neuron survival, percentage of control ([1]; inhibitor 50 μM, 72 h): 87.0±8.0%

O=NOO [peroxynitrite]
Increase of NGF secretion to the culture medium ([3]; 24 hours after treatment, LPS 1 μg/ml): ~9 fold | NGF concentration in conditioned culture media versus controls ([3]; after 3 days): 5 fold

Oc1nc(O)c2nc(O)[nH]c2n1 [urate]
Prevention of the effects of NGF on motor neurons ([1]; co-culture, 200 μM, 72 h): prevented

B1: peroxynitrite-treated NGF: NGF oxidised by peroxynitrite, forming high molecular weight NGF aggregates (protein)
chain: SSTHPVFHMGEFSVCDSVSVWVGDKTTATDIKGKEVTVLAEVNINNSVFRQYFFETKCRASNPVESGCRGIDSKHWNSYCTTTHTFVKALTTDEKQAAWRFIRIDTACVCVLSRKATRRG
Motor neuron survival with peroxynitrite-treated neurotrophin [2]: Decreased motor neuron survival

B2: NGF: mouse NGF (2.5S) from Harlan; nerve growth factor, also the immunogen in aluminum phosphate adjuvant (protein)
chain: SSTHPVFHMGEFSVCDSVSVWVGDKTTATDIKGKEVTVLAEVNINNSVFRQYFFETKCRASNPVESGCRGIDSKHWNSYCTTTHTFVKALTTDEKQAAWRFIRIDTACVCVLSRKATRRG
Motor neuron apoptosis in the presence of nitric oxide ([2]; NGF 100 ng/ml, nitric oxide <50 nM from 10 μM NOC-18): induce motor neuron apoptosis | Survival of motor neurons maintained with GDNF ([2]; NGF 100 ng/ml, no nitric oxide donor): no effect | Motor neurons with fewer neurites, immunoreactive for nitrotyrosine and cleaved caspase-3 ([1]; NGF 100 ng/ml, after 24 h in culture): Approximately 50% | Survival of motor neurons cultured on unstimulated astrocytes ([1]; NGF 0.1-100 ng/ml, 72 h): reduced in a dose-dependent manner | Motor neuron survival after pre-incubation of the astrocyte monolayer ([1]; NGF removed before neuron plating): no effect | Subset of motor neurons vulnerable to NGF in culture ([1]; co-cultures): ~40% | Tolerability of NGF autoimmunization ([4]; all NGF autoimmunized mice): gained weight and did not display any signs of discomfort | Delay of survival versus mice injected with adjuvant only ([4]; female G93A mice, NGF in aluminum phosphate s.c., in average): 10 to 15 days | Disease onset ([4]; in most of the NGF autoimmunized mice): delayed

B3: BDNF treated with peroxynitrite: brain-derived neurotrophic factor treated with peroxynitrite by the identical protocol (protein, UniProt P23560 129-247, looked up)
Neurotrophic factor BDNF: HSDPARRGELSVCDSISEWVTAADKKTAVDMSGGTVTVLEKVPVSKGQLKQYFYETKCNPMGYTKEGCRGIDKRHWNSQCRTTQSYVRALTMDSKKRIGWRFIRIDTSCVCTLTIKRGR
modifications: Neurotrophic factor BDNF peroxynitrite-treated
notes: brain-derived neurotrophic factor treated with peroxynitrite by the identical protocol
Motor neuron survival with peroxynitrite-treated neurotrophin [2]: induces motor neuron apoptosis
